PubChem BioAssay (NCI)
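Five concentrations, 48 hours, 96-well plates. Abbreviation: GI50, concentration required for 50% inhibition of growth. TGI is the concentration that stops growth completely.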 Where a SMILES comes first, the peptide text is derived from it. The star is where a group is joined. Fmoc = O=C(OCC1c2ccccc2-c2ccccc21)*; Boc = CC(C)(C)OC(=O)*

Experiments:
Assay in all cases: NCI anticancer screen, dose series, 48 h
HS 578T breast = test system: HS 578T breast
SNB-75 CNS = test system: SNB-75 CNS
HCT-15 colon = test system: HCT-15 colon
SF-295 CNS = test system: SF-295 CNS
HOP-62 NSCLC = test system: HOP-62 NSCLC
SK-OV-3 ovarian = test system: SK-OV-3 ovarian
SN12C renal = test system: SN12C renal
BT-549 breast = test system: BT-549 breast
HCC-2998 colon = test system: HCC-2998 colon
U251 CNS = test system: U251 CNS

Structure (SMILES) | TGI (HS 578T breast) [µM] | TGI (SNB-75 CNS) [µM] | TGI (HCT-15 colon) [µM] | TGI (SF-295 CNS) [µM] | TGI (HOP-62 NSCLC) [µM] | TGI (SK-OV-3 ovarian) [µM] | TGI (SN12C renal) [µM] | TGI (BT-549 breast) [µM] | TGI (HCC-2998 colon) [µM] | TGI (U251 CNS) [µM] | GI50 (HS 578T breast) [µM] | GI50 (U251 CNS) [µM] | GI50 (SNB-75 CNS) [µM] | GI50 (HCT-15 colon) [µM] | GI50 (SF-295 CNS) [µM] | GI50 (HOP-62 NSCLC) [µM] | GI50 (SK-OV-3 ovarian) [µM] | GI50 (SN12C renal) [µM] | GI50 (BT-549 breast) [µM] | GI50 (HCC-2998 colon) [µM]
CC(C)[Si](OC1=CCC[C@H]2NC(=O)[C@@H](Cc3ccc([N+](=O)[O-])cc3)[C@@]12C)(C(C)C)C(C)C | 25.1 | 23.8 | 15.6 | 16.9 | 17.3 | 21.7 | 3.8 | 13.2 | 4.22 |  |  |  |  |  |  |  |  |  |  | 
C[C@]12CC[C@H]3[C@@H](CCC4=CC(=O)CC[C@@]43C)[C@@H]1CC[C@@H]2OC(=O)c1cccc2c(=O)c3ccccc3[nH]c12 | > 100 | > 100 | > 100 | > 100 | > 100 | > 100 | > 100 | > 100 | > 100 | > 100 |  |  |  |  |  |  |  |  |  | 
COc1cc(C2S/C(=C/c3ccccc3)C(=O)N2c2ccccn2)cc(OC)c1OC (stereo not drawn) | > 68 | 39.7 | 36.4 | > 83.3 | 48.8 | > 90.6 | 33.6 | 39 | 32.8 | 28.1 |  |  |  |  |  |  |  |  |  | 
COc1cc2c3c4c1OCc1c5c(cc(c1-4)CC3[N+](C)(C)CC2)OCO5 (stereo not drawn) | 31.7 | > 100 | > 100 | > 43 | > 100 | > 100 | 39.4 | 12.3 | > 100 | > 64.1 |  |  |  |  |  |  |  |  |  | 
CCCCn1c2c(n(CCCC)c1=[Se])-c1c(n(CCCC)c(=[Se])n1CCCC)S[Se][Se]S2 | 80.5 | 44.7 | 27.9 | 30.9 | 49.1 | 58 | 65 | > 92.5 | > 100 | 32.2 |  |  |  |  |  |  |  |  |  | 
CC(C)[C@H]1NC(=O)[C@H]2N=C(O[C@@H]2C)[C@@H]2CCCN2C(=O)[C@H](Cc2ccccc2)NC(=O)[C@@H]2COC(=N2)[C@@H](Cc2ccccc2)NC(=O)[C@@H]2COC1=N2 | > 100 | 75.6 | > 100 | > 100 | > 100 | > 100 | > 100 | > 100 | > 100 | > 100 |  |  |  |  |  |  |  |  |  | 
C[Si](C)(C)C#CCOC=C1CC1 | > 100 | > 100 | > 100 | > 100 | > 100 | > 100 | > 100 | > 100 | > 100 | > 100 |  |  |  |  |  |  |  |  |  | 
CC(C)(C)OC(=O)NCCCCC(NC(=O)C(Cc1c[nH]c2ccccc12)NC(=O)OCC1c2ccccc2-c2ccccc21)C(=O)O (stereo not drawn) (Fmoc-Trp-Lys(Boc)-OH; configuration not given here) | 96.2 | > 100 | > 100 | > 100 | > 100 | 35.6 | > 100 | > 100 | > 100 | 31.1 |  |  |  |  |  |  |  |  |  | 
CC1(C)N=C(N)N=C(N)N1CCCCc1ccccc1 | > 81.9 | 97.6 | > 100 | > 62.6 | > 100 | 97.5 | > 54.4 | > 100 | > 51 | > 100 |  |  |  |  |  |  |  |  |  | 
CCOC(=O)c1c(CN2CCOCC2)n(Cc2ccccc2)c2c1cc(O)c1nc(C)c(C)nc12 | > 100 | 32.7 | > 100 | > 100 | 51.1 | > 100 | > 100 | 34 | > 100 | 74.3 |  |  |  |  |  |  |  |  |  | 
COc1ccccc1NC1=NCC(C)S1 (stereo not drawn) | > 100 | > 100 | > 100 | > 100 | > 100 | > 100 | > 100 | > 100 | > 100 | > 100 |  |  |  |  |  |  |  |  |  | 
CC(=O)Nc1nc(C)c(-c2cc3c(c(S(C)(=O)=O)c2)C(=O)N([C@@H](C)C2CC2)C3)s1 | 64.2 | 35.6 | > 100 | > 100 | > 100 | 56.4 | > 100 | > 100 | > 100 | > 100 | 18.4 | 29.5 | 3.11 | 28.2 | 31.6 | 28.2 | 22.2 | 28.5 | 29.1 | 46.7
COc1cc(OC)cc(Oc2nc3c(N)cc(C(F)(F)F)cc3nc2-c2ccccc2)c1 | > 100 | > 100 | 55.9 | > 100 | > 100 | > 100 |  | > 100 | > 100 | > 100 |  |  |  |  |  |  |  |  |  | 
COc1ccc(-c2c(C#N)cnc(N)c2-c2nc3cc(C)c(C)cc3[nH]2)cc1 | > 100 | 8.19 | > 100 | 23.4 | 14.4 | 18.4 | > 100 | > 100 | > 100 | 12.7 | 5.87 | 3.65 | 2.36 | 5.81 | 6.41 | 3.65 | 4.84 | 25.4 | 30.6 | 11
CCOC(=O)/C=C1\C[C@H](NC(=O)OCc2ccccc2)C(=O)N1CC(=O)OCC | > 100 | > 100 | > 100 | > 100 | > 100 | > 100 | > 100 | > 100 | > 100 | > 100 |  |  |  |  |  |  |  |  |  | 
